Results from patent US8188078B2 (Sanofi-Aventis, priority 2007, dated 2012).

Key:
c-MET = molecular target: T1, c-MET (Homo sapiens, UniProt P08581); assay: Test A: HTRF Met test in 96-well format; type: biochemical
T1 construct: The recombinant DNA His-Tev-MET (956-1390) in pFastBac(Invitrogen); His (N, cleaved yes); Tev (TEV protease site) (N, cleaved yes); made in house; host or cells: SF21 insect cells (baculovirus, pFastBac)
Procedure: I) Expression and Purification of MET, Cytoplasmic Domain
The recombinant DNA His-Tev-MET (956-1390) in pFastBac(Invitrogen) is transfected in insect cells and after several stages of viral amplification, the final stock of baculovirus is tested for expression of the protein of interest.
After infection for 72 h at 27° C. with the recombinant virus, the SF21 cell cultures are harvested by centrifugation and the cellular deposits are stored at −80° C.
The cellular deposits are resuspended in the lysis buffer (buffer A [50 mM HEPES, pH 7.5, 250 mM NaCl, Glycerol 10%, TECP 1 mM]; +cocktail of protease inhibitors Roche Diagnostics without EDTA, ref 1873580), stirred at 4° C. until homogeneous, then lysed mechanically using apparatus of the “Dounce” type.
After centrifugation, the lysis supernatant is incubated for 2 h at 4° C. with Nickel Chelate resin (His-Trap 6 Fast Flow™, GE HealthCare). After washing with 20 volumes of Tp A, the suspension is packed in a column, and the proteins are eluted with a gradient of buffer B ([…]+290 mM imidazole).
The fractions containing the protein of interest with a view to electrophoretic analysis (SDS PAGE) are collected, concentrated by ultrafiltration (cut-off 10 kDa) and injected in an exclusion chromatography column (Superdex™ 200, GE HealthCare) equilibrated with buffer A.
After enzymatic cleavage of the tag Histidine, the protein is reinjected in a new IMAC Nickel Chelate chromatography column (His-Trap 6 Fast Flow™, GE HealthCare) equilibrated with Buffer A. The fractions eluted with a gradient of buffer B and containing the protein of interest after electrophoresis (SDS PAGE), are finally collected and stored at −80° C.
For the production of autophosphorylated protein, the preceding fractions are incubated for 1 h at room temperature after adding ATP 2 mM, MgCl2 2 mM, and Na3VO4 4 mM. After stopping the reaction with 5 mM of EDTA, the reaction mixture is injected in a HiPrep desalting column (GE HealthCare) equilibrated beforehand with buffer A+Na3VO4 4 mM; the fractions containing the protein of interest (SDS PAGE analysis) are collected and stored at −80° C. The degree of phosphorylation is verified by mass spectrometry (LC-MS), and by peptide mapping.
A) HTRF Met test in 96-well format
In a final volume of 50 μl of enzymatic reaction mixture, final c-MET 5 nM is incubated in the presence of the molecule to be tested (for a final concentration range from 0.17 nM to 10 μM, final DMSO 3%) in buffer MOPS 10 mM pH 7.4, DTT 1 mM, Tween 20 0.01%. The reaction is initiated by the substrate solution to obtain the final concentrations of poly-(GAT) 1 μg/ml, ATP 10 μM and MgCl2 5 mM. After incubation for 10 min at room temperature, the reaction is stopped with a mix of 30 μl to obtain a final solution of Hepes 50 mM pH 7.5, potassium fluoride 500 mM, BSA 0.1% and EDTA 133 mM in the presence of 80 ng Streptavidin 61SAXLB Cis-Bio Int. and 18 ng anti-phosphotyrosine Mab PT66-Europium Cryptate per well. After 2 hours of incubation at room temperature, reading is carried out at 2 wavelengths 620 nm and 665 nm in a reader for the TRACE/HTRF technique and the percentage inhibition is calculated according to the 665/620 ratios.

MET = molecular target: T2, MET (Homo sapiens, UniProt P08581); assay: Test C: inhibition of the autophosphorylation of MET, ELISA technique (pppY1230, 1234, 1235), MKN45 cells; type: cell-based
T2 construct: endogenous in cells; host or cells: MKN45 cells
Procedure: C) Inhibition of the Autophosphorylation of MET; ELISA Technique (pppY1230, 1234, 1235)
a) Cellular lysates: Sow the MKN45 cells in a 96-well plate (Cell coat BD polylysine) at 20 000 cells/well under 200 μl of medium RPMI+10% FCS+1% L-glutamine. Leave to adhere to the incubator for 24 h.
The cells are treated on the day after sowing with the products at 6 concentrations in duplicate for 1 h. At least 3 control wells are treated with the same amount of final DMSO.
Dilution of the products: Stock at 10 mM in pure DMSO—range from 10 mM to 30 μM with steps of 3 of pure DMSO—Intermediate dilutions to 1/50 in culture medium then taking of 10 μl added directly to the cells (200 μl): final range from 10000 to 30 nM.
At the end of incubation, carefully remove the supernatant and rinse with 200 μl of PBS. Then put 100 μl of lysis buffer directly in the wells on ice and incubate at 4° C. for 30 minutes. Lysis buffer: 10 mM Tris, HCl pH7.4, 100 mM NaCl, 1 mM EDTA, 1 mM EGTA, 1% Triton X-100, 10% glycerol, 0.1% SDS, 0.5% deoxycholate, 20 mM NaF, 2 mM Na3VO4, 1 mM PMSF and antiprotease cocktail.
The 100 μl of lysates are transferred to a V-bottomed polypropylene plate and ELISA is performed next or the plate is frozen at −80° C.
b) ELISA PhosphoMET BioSource Kit KH00281
In each well of the plate from the kit, add 70 μl of dilution buffer from the kit+30 μL of cell lysate or 30 μl of lysis buffer for the blank. Incubate for 2 h at room temperature, stirring gently.
Rinse the wells 4 times with 400 μl of washing buffer from the kit. Incubate with 100 μl of anti-phospho MET antibodies for 1 h at room temperature.
Rinse the wells 4 times with 400 μl of washing buffer from the kit. Incubate with 100 μl of anti-rabbit HRP antibodies for 30 minutes at room temperature (except for the wells with chromogen only).
Rinse the wells 4 times with 400 μl of washing buffer from the kit. Add 100 μL of chromogen and incubate for 30 minutes in the dark at room temperature.
Stop the reaction with 100 μl of stop solution. Read at once at […] 0.1 second in the Wallac Victor plate reader.
The products of formula (I) as defined above show cellular activity in this test between 10 nM and 10 μM.

MKN45 cells = assay: Test D: cellular proliferation by 14C-thymidine pulse, MKN45 cells; type: cell-based; settings: cell line not stated (HCT116 or MKN45)
Procedure: D) Measurement of Cellular Proliferation by 14C-Thymidine Pulse
The cells are sown in Cytostar 96-well plates under 180 μl for 4 hours at 37° C. and 5% CO2: The HCT116 cells at a rate of 2500 cells per well in DMEM medium+10% foetal calf serum+1% of L-glutamine and the MKN45 cells at a rate of 7500 cells per well in RPMI medium+10% foetal calf serum+1% of L-glutamine. After said incubation for 4 hours, the products are added under 10 μl in 20-times concentrated solution according to the method of dilution stated for ELISA. The products are tested at 10 concentrations in duplicate from 10000 nM to 0.3 nM in steps of 3.
After treatment for 72 h, add 10 μl of 14C-thymidine at 10 μCi/ml to obtain 0.1 μCi per well. The incorporation of 14C-thymidine is measured on a Micro-Beta (Perkin-Elmer) after 24 hours of pulse and 96 h of treatment.
All the stages of the test are automated on the BIOMEK 2000 or TECAN stations.

[1] = Homo sapiens, MKN-45, cellular proliferation by 14C-thymidine pulse

T2 sequence (P08581 25-1390): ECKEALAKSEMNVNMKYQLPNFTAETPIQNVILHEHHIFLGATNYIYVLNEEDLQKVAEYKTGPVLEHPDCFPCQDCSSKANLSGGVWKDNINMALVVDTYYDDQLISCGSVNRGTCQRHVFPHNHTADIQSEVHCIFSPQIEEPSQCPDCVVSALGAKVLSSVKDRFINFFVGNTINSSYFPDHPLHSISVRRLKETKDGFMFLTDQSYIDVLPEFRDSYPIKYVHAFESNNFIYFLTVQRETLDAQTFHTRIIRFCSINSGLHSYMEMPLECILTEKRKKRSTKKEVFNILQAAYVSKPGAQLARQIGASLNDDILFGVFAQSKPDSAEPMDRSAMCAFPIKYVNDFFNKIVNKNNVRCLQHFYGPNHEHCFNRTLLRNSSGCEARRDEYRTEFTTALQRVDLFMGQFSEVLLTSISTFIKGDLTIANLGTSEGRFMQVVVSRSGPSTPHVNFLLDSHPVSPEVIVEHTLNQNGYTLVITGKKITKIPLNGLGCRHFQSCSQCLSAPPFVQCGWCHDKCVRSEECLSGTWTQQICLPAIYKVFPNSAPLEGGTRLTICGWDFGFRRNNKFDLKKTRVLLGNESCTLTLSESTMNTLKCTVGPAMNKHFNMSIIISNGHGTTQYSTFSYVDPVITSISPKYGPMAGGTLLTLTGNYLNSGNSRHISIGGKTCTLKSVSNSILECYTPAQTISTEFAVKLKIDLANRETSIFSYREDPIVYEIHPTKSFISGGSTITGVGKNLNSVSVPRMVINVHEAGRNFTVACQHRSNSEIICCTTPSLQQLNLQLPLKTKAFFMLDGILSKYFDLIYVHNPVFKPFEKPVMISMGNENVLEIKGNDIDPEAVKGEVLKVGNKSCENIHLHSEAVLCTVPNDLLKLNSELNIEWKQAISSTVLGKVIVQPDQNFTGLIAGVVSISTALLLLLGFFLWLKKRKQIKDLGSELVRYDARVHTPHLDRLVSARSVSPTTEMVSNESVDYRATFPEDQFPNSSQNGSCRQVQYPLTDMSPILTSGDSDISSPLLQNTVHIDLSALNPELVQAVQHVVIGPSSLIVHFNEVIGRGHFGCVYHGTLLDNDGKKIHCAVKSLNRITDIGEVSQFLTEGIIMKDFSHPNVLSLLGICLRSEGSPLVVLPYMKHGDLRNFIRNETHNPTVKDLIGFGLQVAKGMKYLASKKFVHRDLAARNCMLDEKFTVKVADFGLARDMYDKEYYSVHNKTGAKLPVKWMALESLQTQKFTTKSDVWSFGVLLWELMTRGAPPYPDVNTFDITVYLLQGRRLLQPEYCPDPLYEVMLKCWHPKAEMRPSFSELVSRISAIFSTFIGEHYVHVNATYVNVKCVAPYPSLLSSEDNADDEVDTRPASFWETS
T1 sequence (P08581 956-1390): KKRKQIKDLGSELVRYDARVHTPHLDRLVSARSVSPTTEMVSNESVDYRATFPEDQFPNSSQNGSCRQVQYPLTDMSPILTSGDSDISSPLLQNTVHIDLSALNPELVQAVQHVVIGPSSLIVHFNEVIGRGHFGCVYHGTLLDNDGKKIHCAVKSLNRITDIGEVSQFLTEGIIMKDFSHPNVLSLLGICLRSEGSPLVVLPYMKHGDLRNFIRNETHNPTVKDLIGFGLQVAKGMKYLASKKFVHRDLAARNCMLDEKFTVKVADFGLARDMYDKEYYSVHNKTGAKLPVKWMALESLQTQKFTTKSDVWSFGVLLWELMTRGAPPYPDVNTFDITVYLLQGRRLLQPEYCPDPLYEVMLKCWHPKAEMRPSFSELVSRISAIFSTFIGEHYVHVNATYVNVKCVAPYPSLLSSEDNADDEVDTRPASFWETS

Row | IC50 (c-MET) [µM] | IC50 (MET) [µM] | IC50 (MKN45 cells; cellular proliferation by 14C-thymidine pulse) [µM] | IC50 (MKN45 cells; [1]) [µM] | melting point [°C] | SMILES
1 | 0.1 to 10 | 0.5 to 10 | – | – | – | CC(Oc1ccc2nc(NC(=O)NCCN3CCOCC3)sc2c1)c1c(Cl)ccc(F)c1Cl (single isomer, unassigned) [Example 26, 1-{6-[(1S*)-(2,6-dichloro-3-fluorophenyl)ethoxy]-1,3-benzothiazol-2-yl}-3-(2-morpholin-4-ylethyl)urea]
2 | < 0.1 | – | 0.5 to 10 | – | – | CC(Oc1cc2sc(NC(=O)NCCN)nc2cc1F)c1c(Cl)ccc(F)c1Cl (single isomer, unassigned) [Example 90, 1-(2-aminoethyl)-3-{6-[(1S*)-1-(2,6-dichloro-3-fluorophenyl)ethoxy]-5-fluoro-1,3-benzothiazol-2-yl}urea]
3 | 0.1 to 10 | – | – | > 10 | 175 | Nc1nc2ccc(OCc3c(F)cccc3Cl)cc2s1 [Example 8, 6-[(2-chloro-6-fluorobenzyl)oxy]-1,3-benzothiazol-2-amine]
4 | < 0.1 | – | – | < 0.5 | 178 | O=C(Nc1nc2ccc(OCc3c(Cl)cccc3Cl)cc2s1)C1CC1 [Example 9, N-{6-[(2,6-dichlorobenzyl)oxy]-1,3-benzothiazol-2-yl}cyclopropane carboxamide]
5 | – | – | – | > 10 | 178 | Nc1nc2ccc(OCc3c(F)cccc3F)cc2s1 [Example 12, 6-[(2,6-difluorobenzyl)oxy]-1,3-benzothiazol-2-amine]
6 | – | – | – | > 10 | 95 to 105 | CC(Oc1ccc2nc(NC(=O)NCCC3CCN(C(=O)OC(C)(C)C)CC3)sc2c1)c1c(Cl)ccc(F)c1Cl (centres unmarked) [Example 38, 1,1-dimethylethyl 4-{2-[({6-[1-(2,6-dichloro-3-fluorophenyl)ethoxy]-1,3-benzothiazol-2-yl}carbamoyl)amino]ethyl}piperidine-1-carboxylate]
7 | < 0.1 | < 0.5 | – | 0.5 to 10 | – | CC(Oc1ccc2nc(NC(=O)NCCC3CCN(Cc4ccccc4)CC3)sc2c1)c1c(Cl)ccc(F)c1Cl (centres unmarked) [Example 52, 1-[2-(1-benzylpiperidin-4-yl)ethyl]-3-{6-[1-(2,6-dichloro-3-fluorophenyl)ethoxy]-1,3-benzothiazol-2-yl}urea]
8 | – | – | – | – | 188 to 190 | CCN(CC)C(CCOC(N)=O)c1nc2cc(F)c(OC(C)c3c(Cl)ccc(F)c3Cl)cc2s1 (centres unmarked) [Example 70, {6-[1-(2,6-dichloro-3-fluorophenyl)ethoxy]-5-fluoro-1,3-benzothiazol-2-yl}3-(diethylamino)propyl carbamate]
9 | – | – | – | – | 184 to 186 | CCN(CC)C(COC(N)=O)c1nc2cc(F)c(OC(C)c3c(Cl)ccc(F)c3Cl)cc2s1 (centres unmarked) [Example 71, {6-[1-(2,6-dichloro-3-fluorophenyl)ethoxy]-5-fluoro-1,3-benzothiazol-2-yl}2-(diethylamino)ethyl carbamate]
10 | < 0.1 | 0.5 to 10 | – | 0.5 to 10 | – | CCN(CC)CCOC(=O)Nc1nc2cc(F)c(OC(C)c3c(Cl)ccc(F)c3Cl)cc2s1 (centres unmarked) [Example 71]
11 | – | – | – | – | 200 to 205 | COC(COC(N)=O)c1nc2cc(F)c(OC(C)c3c(Cl)ccc(F)c3Cl)cc2s1 (centres unmarked) [Example 72, {6-[1-(2,6-dichloro-3-fluorophenyl)ethoxy]-5-fluoro-1,3-benzothiazol-2-yl}2-methoxyethyl carbamate]
12 | < 0.1 | 0.5 to 10 | – | 0.5 to 10 | – | COCCOC(=O)Nc1nc2cc(F)c(OC(C)c3c(Cl)ccc(F)c3Cl)cc2s1 (centres unmarked) [Example 72]
13 | – | – | – | – | 235 to 240 | CC(Oc1ccc2nc(C(COC(N)=O)N3CCOCC3)sc2c1)c1c(Cl)ccc(F)c1Cl (centres unmarked) [Example 74, {6-[1-(2,6-dichloro-3-fluorophenyl)ethoxy]-1,3-benzothiazol-2-yl}2-(morpholin-4-yl)ethyl carbamate]
14 | – | – | – | – | 230 | CC(Oc1cc2sc(NC(=O)NCCCC(C)(C)OC(N)=O)nc2cc1F)c1c(Cl)ccc(F)c1Cl (centres unmarked) [Example 87, {2-[({6-[1-(2,6-dichloro-3-fluorophenyl)ethoxy]-5-fluoro-1,3-benzothiazol-2-yl}carbamoyl)amino]ethyl}2-methylpropan-2-yl carbamate]
15 | < 0.1 | 0.5 to 10 | – | 0.5 to 10 | – | CC(Oc1cc2sc(NC(=O)NCCNC(=O)OC(C)(C)C)nc2cc1F)c1c(Cl)ccc(F)c1Cl (centres unmarked) [Example 87]
16 | – | – | – | – | 151 to 193 | CNC(=O)OC(C)(C)CCCNC(=O)Nc1nc2cc(F)c(OC(C)c3c(Cl)ccc(F)c3Cl)cc2s1 (centres unmarked) [Example 95, {2-[({6-[1-(2,6-dichloro-3-fluorophenyl)ethoxy]-5-fluoro-1,3-benzothiazol-2-yl}carbamoyl)amino]ethyl}2-methylpropan-2-yl methylcarbamate]
17 | < 0.1 | < 0.5 | – | < 0.5 | – | CC(Oc1cc2sc(NC(=O)NC3CC3)nc2cc1F)c1c(Cl)ccc(F)c1Cl (centres unmarked) [Example 131, 1-cyclopropyl-3-{6-[1-(2,6-dichloro-3-fluorophenyl)ethoxy]-5-fluoro-1,3-benzothiazol-2-yl}urea]
